Our source for the IC50, CC50 and inhibition values is article PMC6412891, “Synthesis and Biological Evaluation of Novel Thiazolyl-Coumarin Derivatives as Potent Histone Deacetylase Inhibitors with Antifibrotic Activity” (Molecules, 2019).

Series [1] has as its system HDACs HeLa cells nuclear extract. Put plainly: HDAC inhibitory activity, fluorometric kit, HeLa cell nuclear extract. Particulars: HeLa cell nuclear extract as HDAC source. The series is classed as biochemical, human.
For a further series, the target named is T1, HDAC1 human recombinant (Homo sapiens, UniProt Q13547).
T1 construct: purchased Enzo Life Science BML-AK511
T1 sequence (Q13547 whole entry): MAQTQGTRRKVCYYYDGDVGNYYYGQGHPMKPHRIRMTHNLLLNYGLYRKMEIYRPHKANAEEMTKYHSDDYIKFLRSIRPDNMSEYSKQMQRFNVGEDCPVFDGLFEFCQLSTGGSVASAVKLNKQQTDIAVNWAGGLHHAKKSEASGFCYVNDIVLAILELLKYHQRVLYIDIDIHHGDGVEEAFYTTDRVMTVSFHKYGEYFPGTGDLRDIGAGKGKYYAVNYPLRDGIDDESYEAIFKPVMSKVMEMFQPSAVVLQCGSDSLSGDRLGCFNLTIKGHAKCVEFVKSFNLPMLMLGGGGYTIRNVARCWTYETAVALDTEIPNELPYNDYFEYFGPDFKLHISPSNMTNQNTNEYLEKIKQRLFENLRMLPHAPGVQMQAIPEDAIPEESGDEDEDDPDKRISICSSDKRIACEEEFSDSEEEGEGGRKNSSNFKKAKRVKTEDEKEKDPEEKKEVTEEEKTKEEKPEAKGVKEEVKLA
In words: HDAC1 inhibitory activity, fluorometric kit. Format: biochemical. The settings on record: Class I.

A further series has as its target T2, HDAC6 human recombinant (Homo sapiens, UniProt Q9UBN7).
T2 construct: purchased Enzo Life Science BML-AK516
T2 sequence (Q9UBN7 1-1215): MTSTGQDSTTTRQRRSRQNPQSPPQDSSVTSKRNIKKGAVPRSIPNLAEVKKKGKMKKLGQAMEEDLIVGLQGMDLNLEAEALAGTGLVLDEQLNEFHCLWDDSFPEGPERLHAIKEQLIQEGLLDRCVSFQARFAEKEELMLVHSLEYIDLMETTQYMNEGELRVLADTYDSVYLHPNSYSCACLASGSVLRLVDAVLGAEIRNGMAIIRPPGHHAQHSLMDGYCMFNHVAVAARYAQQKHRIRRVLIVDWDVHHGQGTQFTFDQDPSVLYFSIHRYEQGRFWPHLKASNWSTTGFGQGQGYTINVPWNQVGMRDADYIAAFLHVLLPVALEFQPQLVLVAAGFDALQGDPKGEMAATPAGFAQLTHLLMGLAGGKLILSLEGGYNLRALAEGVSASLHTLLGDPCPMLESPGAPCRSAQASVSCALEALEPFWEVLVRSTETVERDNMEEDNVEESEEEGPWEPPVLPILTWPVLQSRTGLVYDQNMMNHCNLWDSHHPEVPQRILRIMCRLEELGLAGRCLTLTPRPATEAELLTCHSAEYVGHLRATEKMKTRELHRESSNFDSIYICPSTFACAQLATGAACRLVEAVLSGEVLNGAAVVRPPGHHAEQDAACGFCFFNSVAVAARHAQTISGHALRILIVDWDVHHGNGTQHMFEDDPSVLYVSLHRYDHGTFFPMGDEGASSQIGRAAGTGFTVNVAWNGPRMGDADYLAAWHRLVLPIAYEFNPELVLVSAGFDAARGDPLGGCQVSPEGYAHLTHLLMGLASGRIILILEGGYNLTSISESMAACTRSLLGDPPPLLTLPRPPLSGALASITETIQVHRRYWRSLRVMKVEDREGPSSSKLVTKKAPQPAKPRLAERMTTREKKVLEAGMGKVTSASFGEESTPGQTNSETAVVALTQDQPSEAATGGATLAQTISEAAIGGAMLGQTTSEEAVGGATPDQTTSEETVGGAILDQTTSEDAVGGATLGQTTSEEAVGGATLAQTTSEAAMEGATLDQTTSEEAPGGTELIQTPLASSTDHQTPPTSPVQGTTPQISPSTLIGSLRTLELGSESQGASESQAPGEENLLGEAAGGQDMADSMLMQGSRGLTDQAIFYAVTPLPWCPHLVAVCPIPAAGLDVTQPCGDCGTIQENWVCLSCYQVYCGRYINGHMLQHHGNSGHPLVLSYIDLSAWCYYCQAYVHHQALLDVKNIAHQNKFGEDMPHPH
Put plainly: HDAC6 inhibitory activity, fluorometric kit. The series is classed as biochemical. Particulars: Class II.

Series [2] can be described thus: Cytotoxicity assay (Alamar Blue) in cardiac fibroblasts. Particulars: Sprague-Dawley, rat, primary neonatal rat cardiac fibroblasts (CFs), CFs treated for 48 h. The series is classed as cell-based, rat. The protocol:
CFs were treated for 48 h with all the new CTz derivatives in a broad concentration range (100 μM^−1 mM), and their cytotoxicity was then evaluated. In Table 3 cytotoxic concentration 50 (CC50) values for each of the synthesized compounds are shown. […] When comparing the different ZBG the series 5 is the least cytotoxic for CFs, while series 8 was the most cytotoxic.
(§1) Sprague Dawley rats were obtained from the Animal Breeding Facility of the School of Chemical and Pharmaceutical Sciences at the University of Chile. All studies followed the Guide for the Care and Use of Laboratory Animals published by the US National Institutes of Health (NIH Publication 8th, 2011), and experimental protocols were approved by the University of Chile Institutional Ethics Review Committee. CF were isolated from of 2 or 3–day–old Sprague-Dawley rats and cultured as described previously. Briefly, the neonatal rats were decapitated and their hearts were extracted under aseptic environment. Atria were removed and ventricles were cut into small pieces (~1–2 mm) for posterior colagenase II digestion. The digestion yield was separated by 10 min centrifugation at 89×g. The pellet was resuspended in 10 mL of Dulbecco’s Modified Eagle’s Medium/Nutrient F-12 (DMEM-F12) supplemented with 10% FBS and antibiotics (100 μg/mL streptomycin and 100 units/mL penicillin) and cultured in a humid atmosphere of 5% CO2 and 95% O2 at 37°C until confluence (5 days). The purity of the CFs population was assessed through the expression of several markers. CFs had positive staining against vimentin (Santa Cruz Biotechnology), while being negative against sarcomeric actin and desmin (Sigma-Aldrich). Experiments were performed on cells at passage 1. Cells were cultured in 35-mm well plates and serum starved for 24 h prior to stimulation.
(§2) To evaluate cytotoxicity, CFs were seeded in 12 microwell plates at a ratio of 2 × 10^4 cell/cm^2, cultured in DMEM–F12 medium + 10% FBS, which was subsequently replaced by DMEM–F12. After 24 h of serum starvation derivatives were applied at proper times and concentrations in accordance to experimental procedures. Cell viability assays were carried out using Alamar Blue®, a nontoxic, cell permeable non fluorescent compound that is blue in color. Viable cells reduce resazurin to resorufin, which produces very bright red fluorescence which is used as a quantitative cell viability measure. 10 μL of 0.2 mg/mL Alamar Blue® was added into each well followed by incubation for 24 h. The fluorescence of Alamar Blue® was read using microplate reader at 570 excitation and emission to 595 nm. Cell survival was expressed as percentage over the untreated cells. To evaluate CFs proliferation assay, cells were seeded as mentioned before, and after serum starvation, they were stimulated by 10% fetal bovine serum (FBS), in presence/absence of CTz derivatives for 24 h, at concentrations according to experiment. Cell proliferation was quantified by Alamar Blue®, according to protocol mentioned before. Cell proliferation was expressed as percentage over the control FBS treated cells.

The test system of series [3] is neonatal rat cardiac fibroblasts (CFs). Put plainly: FBS-induced cardiac fibroblast proliferation assay (Alamar Blue). Particulars: 10% FBS-induced CF proliferation, 48 h, read-out: Inhibition percentage of cell proliferation. Format: cell-based. As for the experimental part:
CFs were treated for 48 h with 10% fetal bovine serum (FBS), to induce CFs proliferation in presence/absence of each new CTz derivatives in a concentration range of 1–10 μM. In Table 4, the inhibition percentage of cell proliferation for each concentration of the synthesized compounds are shown. All derivatives inhibited CFs proliferation induce by serum.
as §1, with “Cells were cultured in 35-mm well plates and serum starved for 24 h prior to stimulation.” left out
as §2, with “10 μL of 0.2 mg/mL Alamar Blue® was added into each well followed by incubation for 24 h.” left out, “To evaluate CFs proliferation assay, cells were seeded as mentioned before, and after serum starvation, they were stimulated by 10% fetal bovine serum (FBS), in presence/absence of CTz derivatives for 24 h, at concentrations according to experiment.” left out

In the case of `COc1ccc2oc(=O)c(-c3csc(NC(=O)CCCCC(=O)O)n3)cc2c1` [Compound 7c], the figures for the 50% inhibitory concentration (IC50) (in series [1]; on HDAC1 human recombinant; at HDAC6 human recombinant) were 4.7 ± 0.31 µM, 3.38 ± 0.302 µM and 2.43 ± 0.157 µM, respectively. In series [2], this compound showed a CC50 at 48 h of 99.5 ± 6.3 µM. Moreover, the inhibition at 1 µM in series [3] is 6 ± 0.4%. For the same compound, the inhibition at 5 µM in series [3] is 33 ± 4.1%. Also, the inhibition at 10 µM in series [3] turned out to be 48.8 ± 5.2%.
`O=C(Nc1nc(-c2cc3cc(Br)ccc3oc2=O)cs1)c1ccc(O)c(O)c1` [Compound 6b] had an IC50 in series [1] of 0.509 ± 0.0233 µM. Also, on HDAC1 human recombinant, the half-maximal inhibitory concentration (IC50) turned out to be 0.613 ± 0.0328 µM. Moreover, on HDAC6 human recombinant, the concentration for half-maximal inhibition (IC50) worked out at 0.449 ± 0.0207 µM. Further, the 50% cytotoxic concentration (CC50) at 48 h in series [2] came out at 102 ± 10.3 µM. Besides, in series [3], the inhibition at 1 µM turned out to be 15.8 ± 3.6%, the inhibition at 5 µM was 40 ± 1.8% and the inhibition at 10 µM turned out to be 64.1 ± 1.7%.
For `O=C(O)CCCCC(=O)Nc1nc(-c2cc3cc(Br)ccc3oc2=O)cs1` [Compound 7b], the 50% inhibitory concentration (IC50) was 5.4 ± 0.4 µM in series [1], 4.67 ± 0.362 µM on HDAC1 human recombinant and 6.34 ± 0.466 µM at HDAC6 human recombinant. In addition, the CC50 at 48 h in series [2] turned out to be 80 ± 23.6 µM. The inhibition at 1 µM in series [3] came to 2.4 ± 1.1%. Further, in series [3], the inhibition at 5 µM came to 36.1 ± 5.4%. Moreover, in series [3], the inhibition at 10 µM was found to be 48 ± 4.8%.
In series [1], `COc1ccc2oc(=O)c(-c3csc(NC(=O)c4ccc(O)c(O)c4)n3)cc2c1` [Compound 6c] showed an IC50 of 0.477 ± 0.0275 µM. Also, the half-inhibitory concentration (IC50) on HDAC1 human recombinant stood at 0.504 ± 0.0314 µM. The IC50 at HDAC6 human recombinant came out at 0.581 ± 0.0275 µM. In series [2], half-maximal cytotoxicity (CC50 at 48 h) was put at 124 ± 12.8 µM. In series [3], the inhibition at 1 µM came out at 10.9 ± 3.6%, the inhibition at 5 µM came to 42.2 ± 1.8% and the inhibition at 10 µM was 64.9 ± 2.3%.
